Structures can show the parent of a compound that is named as a salt.
Key:
[1] = target: T1, human GSK3α (Homo sapiens, UniProt P49840); test: In vitro enzymatic activity assay, GSK3α; type: biochemical; details: 1.0 mM ATP, 1.0 μM peptide substrate, 120 min, 25° C, read-out: Enzyme GSK3α (IC50)
T1 construct: Full length human GSK3α or GSK3B expressed as N-terminal GST fusion proteins; GST (N); purchased Carna Biosciences (Japan); host or cells: baculovirus host
Experimental: (§1) Full length human GSK3α or GSK3B expressed as N-terminal GST fusion proteins in baculovirus host were purchased from Carna Biosciences (Japan). The kinase was pre-incubated with ATP (adenosine-5′-triphosphate) for 45 min, then incubated with tested compounds for another 45 min in assay buffer that contains 100 mM HEPES (N-2-hydroxyethylpiperazine-N′-2-ethanesulfonic acid), pH 7.5, 10 mM MgCl2, 1.0 mM DTT, and 0.015% Briji-35. […] Percent inhibition was plotted against compound concentration to generate 10-point dose response curve with 3-fold serial dilution starting from 10 μM. IC50 value was determined from the 4-parameter logistic curve fitting.

[2] = target: T2, GSK3B (Homo sapiens, UniProt P49841); test: NanoBRET cellular target engagement assay, Nanoluc-GSK3B in HEK293 cells; type: cell-based; design: expressed in transfected cells; details: NanoBRET GSK3β IC50, HEK293 cells, tracer K-8, 2 hours, 37° C
Experimental: (§2) In the assay, HEK293 cells stably expressing either Nanoluc-GSK3A or Nanoluc-GSK3B were maintained in culture media and seeded, using a multidrop dispenser, at a density of 5×10^3 cells per well in 384-well white plates with 100 ng/ml doxycycline (Sigma) overnight.
(§3) Compound was first diluted in DMSO to generate a 9-point serial dilution then diluted to 10× final concentration in Opti-MEM™ (Gibco). After overnight incubation, cell medium was aspirated from the seeded cells using a microplate automatic washer, then 27 μL of pre-warmed Opti-MEM™ with kinase tracer (K-8) and 3 μL of Opti-MEM™ diluted DMSO or compounds were added per well. Plates were protected from light, mixed in an orbital shaker for 3 min at RT and incubated at 37° C., 5% CO2 in a humidified incubator for 2 hours. After acclimation at RT for 15 min, 15 μL of 3× complete NanoBRET™ Nano-Glo Substrate/Inhibitor (Promega) was added per well. Plates were mixed in an orbital shaker for 3 min at RT and incubated for an additional 30 min. Donor emission at 460 nm and acceptor emission at 647 nm were measured in EnVision multilabel plate reader (Perkin Elmer).

[3] = target: T2, GSK3B; test: In vitro enzymatic activity assay, GSK3β; type: biochemical; design: Full length human GSK3α or GSK3B expressed as N-terminal GST fusion proteins; GST (N); purchased Carna Biosciences (Japan); host or cells: baculovirus host; details: 1.0 mM ATP, 1.0 μM peptide substrate, 120 min, 25° C, read-out: Enzyme GSK3β (IC50)
Experimental: as §1

[4] = target: T3, GSK3A (Homo sapiens, UniProt P49840); test: NanoBRET cellular target engagement assay, Nanoluc-GSK3A in HEK293 cells; type: cell-based; details: NanoBRET GSK3α IC50, HEK293 cells, tracer K-8, 2 hours, 37° C
T3 construct: expressed in transfected cells
Experimental: as §2, §3

T2 sequence (P49841 whole entry): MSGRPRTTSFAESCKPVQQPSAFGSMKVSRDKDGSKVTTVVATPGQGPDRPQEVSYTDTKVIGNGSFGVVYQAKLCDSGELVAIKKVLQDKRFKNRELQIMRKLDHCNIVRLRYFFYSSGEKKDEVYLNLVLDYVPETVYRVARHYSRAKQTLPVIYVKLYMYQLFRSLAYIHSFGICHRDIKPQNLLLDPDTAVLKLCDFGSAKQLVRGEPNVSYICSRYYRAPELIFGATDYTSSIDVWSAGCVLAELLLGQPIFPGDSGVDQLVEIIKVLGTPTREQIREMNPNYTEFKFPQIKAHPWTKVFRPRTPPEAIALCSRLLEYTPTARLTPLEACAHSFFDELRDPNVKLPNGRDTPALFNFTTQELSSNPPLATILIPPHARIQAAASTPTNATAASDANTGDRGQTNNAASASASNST
T3 sequence (P49840 whole entry): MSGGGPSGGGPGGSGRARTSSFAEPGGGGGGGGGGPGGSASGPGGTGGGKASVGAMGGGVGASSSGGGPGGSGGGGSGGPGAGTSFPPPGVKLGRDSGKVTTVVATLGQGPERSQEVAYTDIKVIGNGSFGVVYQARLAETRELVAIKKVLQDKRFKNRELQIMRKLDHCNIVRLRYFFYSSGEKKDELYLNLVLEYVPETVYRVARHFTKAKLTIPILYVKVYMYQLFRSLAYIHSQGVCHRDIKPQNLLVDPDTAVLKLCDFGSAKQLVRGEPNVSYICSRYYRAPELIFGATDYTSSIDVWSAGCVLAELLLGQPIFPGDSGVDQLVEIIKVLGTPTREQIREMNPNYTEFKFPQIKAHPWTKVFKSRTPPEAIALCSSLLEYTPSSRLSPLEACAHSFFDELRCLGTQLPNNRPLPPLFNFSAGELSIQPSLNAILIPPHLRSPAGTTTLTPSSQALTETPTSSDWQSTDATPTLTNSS
T1 sequence (P49840 whole entry, the tested form may be a part): as the sequence (P49840 whole entry) above

SMILES | IC50 [1] [µM] | IC50 [2] [µM] | IC50 [3] [µM] | IC50 [4] [µM]
COCc1cc(C)c(-n2cnc(N)c(C(=O)Nc3cncc(C4CNC(=O)CN4)c3)c2=O)c(C)c1 (single isomer, unassigned) [Example 160, (R)-4-amino-1-(4-(methoxymethyl)-2,6-dimethylphenyl)-6-oxo-N-(5-(5-oxopiperazin-2-yl)pyridin-3-yl)-1,6-dihydropyrimidine-5-carboxamide or (S)-4-amino-1-(4-(methoxymethyl)-2,6-dimethylphenyl)-6-oxo-N-(5-(5-oxopiperazin-2-yl)pyridin-3-yl)-1,6-dihydropyrimidine-5-carboxamide] | 0.161 | 11.3 | 2.32 | 0.197
COCc1cc(C)c(-n2cnc(N)c(C(=O)Nc3cncc([C@H]4CCCCN4)c3)c2=S)c(C)c1 [Example 163, (R)-4-amino-1-(4-(methoxymethyl)-2,6-dimethylphenyl)-N-(5-(piperidin-2-yl)pyridin-3-yl)-6-thioxo-1,6-dihydropyrimidine-5-carboxamide trifluoroacetate] | 0.0056 | 0.205 | 0.25 | 0.0028
C[C@@H](N)c1cncc(NC(=O)c2c(N)ncn(-c3c(Cl)cc(Cl)cc3Cl)c2=O)c1 (single isomer, unassigned) [Example 50, (R)-4-amino-N-(5-(1-aminoethyl)pyridin-3-yl)-6-oxo-1-(2,4,6-trichlorophenyl)-1,6-dihydropyrimidine-5-carboxamide or (S)-4-amino-N-(5-(1-aminoethyl)pyridin-3-yl)-6-oxo-1-(2,4,6-trichlorophenyl)-1,6-dihydropyrimidine-5-carboxamide] | 0.0165 | 0.439 | 0.708 | 0.0074
CCOCc1cc(Cl)c(-n2cnc(N)c(C(=O)Nc3cncc(C(N)CC)c3)c2=O)c(Cl)c1 (single isomer, unassigned) [Example 129, (R)-4-amino-N-(5-(1-aminopropyl)pyridin-3-yl)-1-(2,6-dichloro-4-(ethoxymethyl)phenyl)-6-oxo-1,6-dihydropyrimidine-5-carboxamide or (S)-4-amino-N-(5-(1-aminopropyl)pyridin-3-yl)-1-(2,6-dichloro-4-(ethoxymethyl)phenyl)-6-oxo-1,6-dihydropyrimidine-5-carboxamide] | 0.0021 | 0.0817 | 0.105 | 0.0012
CNC(C)c1cncc(NC(=O)c2c(N)ncn(-c3c(Cl)cc(C#N)cc3Cl)c2=O)c1 (single isomer, unassigned) [Example 9, (R)-4-amino-1-(2,6-dichloro-4-cyanophenyl)-N-(5-(1-(methylamino)ethyl)pyridin-3-yl)-6-oxo-1,6-dihydropyrimidine-5-carboxamide or (S)-4-amino-1-(2,6-dichloro-4-cyanophenyl)-N-(5-(1-(methylamino)ethyl)pyridin-3-yl)-6-oxo-1,6-dihydropyrimidine-5-carboxamide] | 0.0095 | 0.43 | 0.661 | 0.0074
COC[C@@H](N)c1cccc(NC(=O)c2c(N)ncn(-c3c(C)cc(C#N)cc3Cl)c2=O)c1 (atropisomer, axis not shown) [Example 42, (S)-4-amino-N-(3-(1-amino-2-methoxyethyl)phenyl)-1-((S)-2-chloro-4-cyano-6-methylphenyl)-6-oxo-1,6-dihydropyrimidine-5-carboxamide] | 0.0048 | 0.257 | 0.298 | 0.0029
CCNCc1cncc(NC(=O)c2c(N)ncn(-c3c(Cl)cc(C(F)(F)F)cc3Cl)c2=O)c1 [Example 22, 4-amino-1-(2,6-dichloro-4-(trifluoromethyl)phenyl)-N-(5-((ethylamino)methyl)pyridin-3-yl)-6-oxo-1,6-dihydropyrimidine-5-carboxamide] | 0.0084 | 0.334 | 0.389 | 0.0056
Cc1cc(C(F)CF)cc(C)c1-n1cnc(N)c(C(=O)Nc2cncc([C@H]3CCCCN3)c2)c1=O (single isomer, unassigned) [Example 113, 4-amino-1-(4-((R)-1,2-difluoroethyl)-2,6-dimethylphenyl)-6-oxo-N-(5-((R)-piperidin-2-yl)pyridin-3-yl)-1,6-dihydropyrimidine-5-carboxamide or 4-amino-1-(4-((S)-1,2-difluoroethyl)-2,6-dimethylphenyl)-6-oxo-N-(5-((R)-piperidin-2-yl)pyridin-3-yl)-1,6-dihydropyrimidine-5-carboxamide] | 0.003 | 0.107 | 0.133 | 0.0017
COc1cc(Cl)c(-n2cnc(N)c(C(=O)Nc3cncc([C@@H]4CCCN4)c3)c2=O)c(Cl)c1 [Example 73, (S)-4-amino-1-(2,6-dichloro-4-methoxyphenyl)-6-oxo-N-(5-(pyrrolidin-2-yl)pyridin-3-yl)-1,6-dihydropyrimidine-5-carboxamide] | 0.0067 | 0.374 | 0.318 | 0.0058
Cc1cc(OC(F)(F)F)cc(C)c1-n1cnc(N)c(C(=O)Nc2cncc([C@H]3CCCCN3)c2)c1=O [Example 110, (R)-4-amino-1-(2,6-dimethyl-4-(trifluoromethoxy)phenyl)-6-oxo-N-(5-(piperidin-2-yl)pyridin-3-yl)-1,6-dihydropyrimidine-5-carboxamide] | 0.0099 | 0.335 | 0.568 | 0.0037
CCNCc1cncc(NC(=O)c2c(N)ncn(-c3c(Cl)cc(OC(F)F)cc3Cl)c2=O)c1 [Example 10, 4-amino-1-(2,6-dichloro-4-(difluoromethoxy)phenyl)-N-(5-((ethylamino)methyl)pyridin-3-yl)-6-oxo-1,6-dihydropyrimidine-5-carboxamide] | 0.0088 | 0.371 | 0.395 | 0.0069
CN[C@@H](COC)c1cncc(NC(=O)c2c(N)ncn(-c3c(Cl)cc(OC)cc3Cl)c2=O)c1 (single isomer, unassigned) [Example 80, (R)-4-amino-1-(2,6-dichloro-4-methoxyphenyl)-N-(5-(2-methoxy-1-(methylamino)ethyl)pyridin-3-yl)-6-oxo-1,6-dihydropyrimidine-5-carboxamide or (S)-4-amino-1-(2,6-dichloro-4-methoxyphenyl)-N-(5-(2-methoxy-1-(methylamino)ethyl)pyridin-3-yl)-6-oxo-1,6-dihydropyrimidine-5-carboxamide] | 0.0025 | 0.271 | 0.27 | 0.0029
[2H]C([2H])([2H])NC(C)c1cncc(NC(=O)c2c(N)ncn(-c3c(C)cc(C(F)(F)F)cc3Cl)c2=O)c1 (single isomer, unassigned) [Example 16, (R)-4-amino-1-((S)-2-chloro-6-methyl-4-(trifluoromethyl)phenyl)-N-(5-(1-((methyl-d3)amino)ethyl)pyridin-3-yl)-6-oxo-1,6-dihydropyrimidine-5-carboxamide or (S)-4-amino-1-((S)-2-chloro-6-methyl-4-(trifluoromethyl)phenyl)-N-(5-(1-((methyl-d3)amino)ethyl)pyridin-3-yl)-6-oxo-1,6-dihydropyrimidine-5-carboxamide] | 0.0041 | 0.132 | 0.255 | 0.0019
COCC(N)c1cncc(NC(=O)c2c(N)ncn(-c3c(Cl)cc(Cl)cc3Cl)c2=O)c1 (single isomer, unassigned) [Example 49, (R)-4-amino-N-(5-(1-amino-2-methoxyethyl)pyridin-3-yl)-6-oxo-1-(2,4,6-trichlorophenyl)-1,6-dihydropyrimidine-5-carboxamide or (S)-4-amino-N-(5-(1-amino-2-methoxyethyl)pyridin-3-yl)-6-oxo-1-(2,4,6-trichlorophenyl)-1,6-dihydropyrimidine-5-carboxamide] | 0.0025 | 0.144 | 0.161 | 0.0028

From patent publication US20260327191A1, “GSK3a INHIBITORS AND METHODS OF USE THEREOF” (Blueprint Medicines Corporation, priority 2023, published 2026)
